For 13 compounds, IC50 results are on record in patent US7618960B2, “Morpholine type cinnamide compound” (Eisai R&D Management Co., Ltd., priority 2005, dated 2009).

The subject of this experiment is Aβ42 production. Put plainly: Quantification of Aβ peptide in culture of neurons from rat fetus brain (Aβ ELISA). Type of experiment: cell-based. Conditions: Neuron, 72 h; rat primary neuronal culture (cerebral cortex, embryonic day 18 Wistar rats); medium collected three days after addition of compound; Aβx-42 ELISA; read-out: Activity for reducing Aβ42 production IC50. The method, then: Quantification of Aβ Peptide in Culture of Neurons from Rat Fetus Brain
(1) Rat Primary Neuronal Culture
Primary neuronal cultures were prepared from the cerebral cortex of embryonic day 18 Wistar rats (Charles River Japan, Yokohama, Japan). Specifically, the embryos were aseptically removed from pregnant rats under ether anesthesia. The brain was isolated from the embryo and immersed in an ice-cold L-15 medium (Invitrogen Corp. Cat #11415-064, Carlsbad, Calif., USA, or SIGMA L1518, for example). The cerebral cortex was collected from the isolated brain under a stereoscopic microscope. The cerebral cortex fragments collected were enzymatically treated in an enzyme solution containing 0.25% trypsin (Invitrogen Corp. Cat #15050-065, Carlsbad, Calif., USA) and 0.01% DNase (Sigma D5025, St. Louis, Mo., USA) at 37° C. for 30 minutes to disperse the cells. Here, the enzymatic reaction was stopped by adding inactivated horse serum to the solution. The enzymatically treated solution was centrifuged at 1,500 rpm for five minutes to remove the supernatant. 5 to 10 ml of a medium was added to the resulting cell mass. Neurobasal medium (Invitrogen Corp. Cat #21103-049, Carlsbad, Calif., USA) supplemented with 2% B27 supplement (Invitrogen Corp. Cat #17504-044, Carlsbad, Calif., USA), 25 μM 2-mercaptoethanol (2-ME, WAKO Cat #139-06861, Osaka, Japan), 0.5 mM L-glutamine (Invitrogen Corp. Cat #25030-081, Carlsbad, Calif., USA), and Antibiotics-Antimycotics (Invitrogen Corp. Cat #15240-062, Carlsbad, Calif., USA) was used as the medium (Neurobasal/B27/2-ME). However, the above Neurobasal medium not supplemented with 2-ME (Neurobasal/B27) was used for the assay. The cells were redispersed by mild pipetting of the cell mass to which the medium was added. The cell dispersion was filtered through a 40-μm nylon mesh (Cell Strainer, Cat #35-2340, Becton Dickinson Labware, Franklin Lakes, N.J., USA) to remove the remaining cell mass, and thus a neuronal cell suspension was obtained. The neuronal cell suspension was diluted with the medium and then plated in a volume of 100 μl/well at an initial cell density of 5×10^5 cells/cm^2 in a 96-well polystyrene culture plate pre-coated with poly-L or D-lysine (Falcon Cat #35-3075, Becton Dickinson Labware, Franklin Lakes, N.J., USA coated with poly-L-lysine using the method shown below, or BIOCOAT™ cell environments Poly-D-lysine cell ware 96-well plate, Cat #35-6461, Becton Dickinson Labware, Franklin Lakes, N.J., USA). Poly-L-lysine coating was carried out as follows. 100 μg/ml of a poly-L-lysine (SIGMA P2636, St. Louis, Mo., USA) solution was aseptically prepared with a 0.15 M borate buffer (pH 8.5). 100 μl/well of the solution was added to the 96-well polystyrene culture plate and incubated at room temperature for one or more hours or at 4° C. overnight or longer. The coated 96-well polystyrene culture plate was washed with sterile water four or more times, and then dried or rinsed with, for example, sterile PBS or medium, and used for cell plating. The plated cells were cultured in the culture plate at 37° C. in 5% […]-95% air for one day. Then, the total amount of the medium was replaced with a fresh Neurobasal™/B27/2-ME medium, and then the cells were cultured for further three days.
The drug was added to the culture plate on Day 4 of culture as follows. The total amount of the medium was removed from the wells, and 180 μl/well of Neurobasal medium not containing 2-ME and containing 2% B-27 (Neurobasal/B27) was added thereto. A solution of the test compound in dimethyl sulfoxide (hereinafter abbreviated as DMSO) was diluted with Neurobasal/B27 so that the initial concentration was at 10-fold of the final concentration. 20 μl/well of the dilution was added to and sufficiently mixed with the medium. The final DMSO concentration was 1% or less. Only DMSO was added to the control group.
The cells were cultured for three days after addition of the compound, and the total amount of the medium was collected. […]
Take `COc1cc(/C=C2\OC(C)(C)CN([C@@H](C)c3ccnc(Cl)c3)C2=O)ccc1-n1cnc(C)c1` [Example 54, (Z)-4-[(S)-1-(2-chloropyridin-4-yl)ethyl]-2-[1-[3-methoxy-4-(4-methyl-1H-imidazol-1-yl)phenyl]methylidene]-6,6-dimethylmorpholin-3-one]: the IC50 worked out at 0.074 µM. The same measure for `COc1cc(/C=C2\OC(C)(C)CN([C@@H](C)c3ccc(F)nc3F)C2=O)ccc1-n1cnc(C)c1` [Example 55, (Z)-4-[(S)-1-(2,6-difluoropyridin-3-yl)ethyl]-2-[1-[3-methoxy-4-(4-methyl-1H-imidazol-1-yl)phenyl]methylidene]-6,6-dimethylmorpholin-3-one]: 0.111 µM; for `COc1cc(/C=C2\OC(C)(C)CN([C@@H](C)c3ccnc(F)c3F)C2=O)ccc1-n1cnc(C)c1` [Example 58, (Z)-4-[(S)-1-(2,3-difluoropyridin-4-yl)ethyl]-2-[1-[3-methoxy-4-(4-methyl-1H-imidazol-1-yl)phenyl]methylidene]-6,6-dimethylmorpholin-3-one]: 0.067 µM. Regarding `COc1cc(/C=C2\OC(C)(C)CN([C@@H](C)c3ccc(Cl)cn3)C2=O)ccc1-n1cnc(C)c1` [Example 60, (Z)-4-[(S)-1-(5-chloropyridin-2-yl)ethyl]-2-[1-[3-methoxy-4-(4-methyl-1H-imidazol-1-yl)phenyl]methylidene]-6,6-dimethylmorpholin-3-one], the IC50 was 0.096 µM. Take `Cc1cn(-c2ccc(/C=C3\O[C@@H](C)CN([C@H](c4cc(F)c(F)c(F)c4)[C@@H](C)O)C3=O)cc2F)cn1` [Example 74, (Z)-(S)-2-[1-[3-fluoro-4-(4-methyl-1H-imidazol-1-yl)phenyl]methylidene]-4-[(1R,2R)-2-hydroxy-1-(3,4,5-trifluorophenyl)propyl]-6-methylmorpholin-3-one]: the half-maximal inhibitory concentration (IC50) turned out to be 0.14 µM. The same measure for `Cc1cn(-c2ccc(/C=C3\O[C@@H](C)CN([C@H](c4ccc(F)c(F)c4)[C@@H](C)O)C3=O)cc2F)cn1` [Example 75, (Z)-(S)-4-[(1R,2R)-1-(3,4-difluorophenyl)-2-hydroxypropyl]-2-[1-[3-fluoro-4-(4-methyl-1H-imidazol-1-yl)phenyl]methylidene]-6-methylmorpholin-3-one]: 0.146 µM; for `Cc1cn(-c2ccc(/C=C3\OC(C)(C)CN([C@H](c4cc(F)c(F)c(F)c4)[C@@H](C)O)C3=O)cc2F)cn1` [Example 77, (Z)-2-[1-[3-fluoro-4-(4-methyl-1H-imidazol-1-yl)phenyl]methylidene]-4-[(1R,2R)-2-hydroxy-1-(3,4,5-trifluorophenyl)propyl]-6,6-dimethylmorpholin-3-one]: 0.141 µM.

As to `Cc1cn(-c2ccc(/C=C3\C[C@H](C)CN([C@H](c4cc(F)c(F)c(F)c4)[C@@H](C)O)C3=O)cc2F)cn1` [Example 84, (E)-(S)-3-{1-[3-fluoro-4-(4-methyl-1H-imidazol-1-yl)phenyl]methylidene}-1-[(1R,2R)-2-hydroxy-1-(3,4,5-trifluorophenyl)propyl]-5-methylpiperidin-2-one], the IC50 stood at 0.037 µM.

As to `Cc1cn(-c2ccc(/C=C3\CCCN([C@H](c4cc(F)c(F)c(F)c4)[C@@H](C)O)C3=O)cc2F)cn1` [Example 85, (E)-3-{1-[3-fluoro-4-(4-methyl-1H-imidazol-1-yl)phenyl]methylidene}-1-[(1R,2R)-2-hydroxy-1-(3,4,5-trifluorophenyl)propyl]piperidin-2-one], the IC50 was 0.064 µM. As to `COc1cc(/C=C2\OC[C@H]3CCC[C@@H](c4ccc(Cl)cc4)N3C2=O)ccc1-n1cnc(C)c1` [Example 107, (6S,9aR)-6-(4-chlorophenyl)-3-{1-[3-methoxy-4-(4-methyl-1H-imidazol-1-yl)phenyl]-(Z)-methylidene}hexahydropyrido[2,1-c][1,4]oxazin-4-one], the IC50 stood at 0.078 µM.

As for `COc1cc(/C=C2\OC[C@H]3COC[C@@H](c4cc(F)c(F)c(F)c4)N3C2=O)ccc1-n1cnc(C)c1` [Example 108, (6R,9aR)-3-{1-[3-methoxy-4-(4-methyl-1H-imidazol-1-yl)phenyl]-(Z)-methylidene}-6-(3,4,5-trifluorophenyl)tetrahydro[1,4]oxazino[3,4-c][1,4]oxazin-4-one], the IC50 is 0.06 µM.

For the compound `COc1cc(/C=C2\OC[C@H]3COC[C@@H](c4ccc(F)c(F)c4)N3C2=O)ccc1-n1cnc(C)c1` [Example 109, (6R,9aR)-6-(3,4-difluorophenyl)-3-{1-[3-methoxy-4-(4-methyl-1H-imidazol-1-yl)phenyl]-(Z)-methylidene}tetrahydro[1,4]oxazino[3,4-c][1,4]oxazin-4-one], the IC50 was 0.1 µM. For the compound `COc1cc(/C=C2\OC[C@H]3COC[C@@H](c4ccc(Cl)cc4)N3C2=O)ccc1-n1cnc(C)c1` [Example 111, (6R,9aR)-6-(4-chlorophenyl)-3-[1-[3-methoxy-4-(4-methyl-1H-imidazol-1-yl)phenyl]-(Z)-methylidene]tetrahydro[1,4]oxadino[3,4-c]oxadine-4-one], the IC50 is 0.129 µM.

As usually defined, the IC50 is the concentration needed to halve the response being measured.
